Data taken from patent publication US10221163B2 (priority 2015, dated 2019).
Where two headings read alike, the source gives them in different places.

Legend:
[1] = test system: Pseudomonas aeruginosa MB9798 vs MB9799; conditions: ratio MITC95 PA_9798/MITC95 PA_9799
In short: (§1)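 P. aeruginosa PAO1-derived IMP-1 strains, efflux+ MB9798 and efflux− MB9799, tested by standard microbroth MIC with imipenem and/or ceftazidime fixed, usually at CLSI breakpoint, plus fixed class A/C β-lactamase inhibitor against AmpC. Inhibitor titrated; concentration restoring susceptibility recorded; MB9798/MB9799 fold difference indicates efflux.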

VIM-1 = VIM-1 (Pseudomonas aeruginosa (strain ATCC 15692 / DSM 22644 / CIP 104116 / JCM 14847 / LMG 12228 / 1C / PRS 101 / PAO1), UniProt A0A0F7KYQ8); experiment: biochemical; conditions: CCF2-FA substrate, 30 pM enzyme, 2 hours at 25° C.
In short: (§2)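 Inhibitor was mixed with the metallo-β-lactamase and CCF2-FA. After 2 hours at 25° C, fluorescence of the coumarin–fluorescein cephalosporin substrate was read. IC50 was calculated with a 4-parameter fit.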

[2] = test system: Klebsiella pneumoniae expressing VIM-1 (IHMA599644); type: cell-based; conditions: with imipenem 1 μg/ml; 95% inhibition of bacterial growth
In short: (§3)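 Clinical isolates (E. coli NDM-1, S. marcescens IMP-1, K. pneumoniae VIM-1) were diluted 1:100 from saline suspension into 1.1×CAMHB and exposed to test compound with imipenem at 1 μg/ml. Plates were incubated at 35° C for 22 hours to 24 hours, and growth was read by absorbance.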

[3] = test system: Serratia marcescens expressing IMP-1 (CL5741); type: cell-based; conditions: with imipenem 1 μg/ml; 95% inhibition of bacterial growth
In short: as §3

[4] = test system: Escherichia coli expressing NDM-1 (CLB30005, CLB30016); type: cell-based; conditions: with imipenem 1 μg/ml; 95% inhibition of bacterial growth
In short: as §3

IMP-1 = IMP-1 (Serratia marcescens, UniProt P52699); experiment: biochemical; type: biochemical; conditions: fluorescence assay, CCF2-FA substrate, 2 pM enzyme, 2 hours at 25° C.; read-out: IMP-1 IC50
Chain of IMP-1 (P52699 whole entry, looked up, species assumed): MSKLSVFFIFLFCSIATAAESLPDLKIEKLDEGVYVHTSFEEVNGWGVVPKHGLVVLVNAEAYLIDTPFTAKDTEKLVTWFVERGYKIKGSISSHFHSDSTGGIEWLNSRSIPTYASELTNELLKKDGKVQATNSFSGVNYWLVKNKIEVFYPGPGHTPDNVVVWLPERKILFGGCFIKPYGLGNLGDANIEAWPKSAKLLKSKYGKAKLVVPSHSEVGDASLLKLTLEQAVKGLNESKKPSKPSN
In short: as §2

NDM-1 = NDM-1 (Klebsiella pneumoniae, UniProt C7C422); experiment: biochemical; type: biochemical; conditions: fluorescence assay, CCF2-FA substrate, 1 pM enzyme, 2 hours at 25° C.; read-out: NDM-1 IC50
Chain of NDM-1 (C7C422 whole entry, looked up, species assumed): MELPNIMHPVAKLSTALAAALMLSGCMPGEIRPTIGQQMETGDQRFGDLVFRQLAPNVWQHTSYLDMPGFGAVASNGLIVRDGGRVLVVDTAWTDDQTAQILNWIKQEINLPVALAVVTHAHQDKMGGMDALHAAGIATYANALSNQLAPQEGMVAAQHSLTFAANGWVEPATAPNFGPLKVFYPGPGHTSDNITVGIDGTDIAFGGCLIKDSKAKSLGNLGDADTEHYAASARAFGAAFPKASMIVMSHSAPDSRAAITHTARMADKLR
In short: as §2

[5] = test system: Pseudomonas aeruginosa efflux− (MB9799), IMP-1; type: cell-based; conditions: concentration restoring susceptibility to imipenem at 2 μg/mL in the presence of a class A, C, D serine β-lactamase inhibitor closely related to relebactam
In short: as §1

[6] = test system: Pseudomonas aeruginosa efflux+ (MB9798), IMP-1; type: cell-based; conditions: concentration restoring susceptibility to imipenem at 2 μg/mL in the presence of a class A, C, D serine β-lactamase inhibitor closely related to relebactam
In short: as §1

[7] = fluorescence assay, read-out: VIM-1 IC50

Row | SMILES | Efflux ratio [1] | IC50 (VIM-1; [7]) [nM] | Klebsiella pneumoniae expressing VIM-1 (IHMA599644) MITC95 [2] [µM] | Serratia marcescens expressing IMP-1 (CL5741) MITC95 [3] [µM] | Escherichia coli expressing NDM-1 (CLB30016) MITC95 [4] [µM] | IC50 (IMP-1) [nM] | IC50 (NDM-1) [nM] | P. aeruginosa expressing IMP-1, efflux − (MB9799) MITC95 [5] [µM] | P. aeruginosa expressing IMP-1, efflux + (MB9798) MITC95 [6] [µM] | IC50 (VIM-1; VIM-1 IC50, fluorescence assay) [nM]
1 | Nc1nc2c(-c3ccc(S(=O)(=O)NC4CCc5nccn5C4)c(S(N)(=O)=O)c3-c3nnn[nH]3)cccc2s1 (stereo not drawn) [Example 35, 4-(2-amino-1,3-benzothiazol-4-yl)-N1-(5,6,7,8-tetrahydroimidazo[1,2-a]pyridin-6-yl)-3-(1H-tetrazol-5-yl)benzene-1,2-disulfonamide] | 2.00 | 0.256 | 12.5 | 3.125 | 12.5 | 0.349 | 0.0508 | 3.125 | 6.25 | –
2 | CN(C)C(=O)CNS(=O)(=O)c1ccc(-c2cccc3sc(N)nc23)c(-c2nnn[nH]2)c1S(N)(=O)=O [Example 36, N^2-{[4-(2-amino-1,3-benzothiazol-4-yl)-2-sulfamoyl-3-(1H-tetrazol-5-yl)phenyl]sulfonyl}-N,N-dimethylglycinamide] | 1.00 | – | 12.5 | 3.125 | 25 | 0.247 | 0.0369 | 3.125 | 3.125 | 0.166
3 | Nc1nc2c(-c3ccc(S(=O)(=O)NCC4(CO)CC4)c(S(N)(=O)=O)c3-c3nnn[nH]3)cccc2s1 [Example 37, 4-(2-amino-1,3-benzothiazol-4-yl)-N1-{[1-(hydroxymethyl)cyclopropyl]methyl}-3-(1H-tetrazol-5-yl)benzene-1,2-disulfonamide] | 1.00 | – | 12.5 | 3.125 | 12.5 | 0.287 | 0.00769 | 6.25 | 6.25 | 0.198
4 | CN1CC2(CCN(S(=O)(=O)c3ccc(-c4cccc5sc(N)nc45)c(-c4nnn[nH]4)c3S(N)(=O)=O)C2)C1 [Example 38, 3-(2-amino-1,3-benzothiazol-4-yl)-6-[(2-methyl-2,6-diazaspiro[3.4]oct-6-yl)sulfonyl]-2-(1H-tetrazol-5-yl)benzenesulfonamide] | 1.00 | – | 12.5 | 3.125 | 12.5 | 1.43 | 0.424 | 3.125 | 3.125 | 2.52
5 | CN(C)C1CN(S(=O)(=O)c2ccc(-c3cccc4sc(N)nc34)c(-c3nnn[nH]3)c2S(N)(=O)=O)C1 [Example 39, 3-(2-amino-1,3-benzothiazol-4-yl)-6-{[3-(dimethylamino)azetidin-1-yl]sulfonyl}-2-(1H-tetrazol-5-yl)benzenesulfonamide] | 16.00 | 0.908 | 12.5 | 6.25 | 12.5 | 0.878 | 0.506 | 3.125 | 50 | –
6 | Nc1nc2c(-c3ccc(S(=O)(=O)N4CC5CC4CS5(=O)=O)c(S(N)(=O)=O)c3-c3nnn[nH]3)cccc2s1 (stereo not drawn) [Example 40, 3-(2-amino-1,3-benzothiazol-4-yl)-6-[(2,2-dioxido-2-thia-5-azabicyclo[2.2.1]hept-5-yl)sulfonyl]-2-(1H-tetrazol-5-yl)benzenesulfonamide] | 16.00 | – | 25 | 6.25 | 25 | 1.86 | 1.7 | 3.125 | 50 | 2.66
7 | CN(C1CCS(=O)(=O)C1)S(=O)(=O)c1ccc(-c2cccc3sc(N)nc23)c(-c2nnn[nH]2)c1S(N)(=O)=O (stereo not drawn) [Example 41, 4-(2-amino-1,3-benzothiazol-4-yl)-N^1-(1,1-dioxidotetrahydrothiophen-3-yl)-N~1~-methyl-3-(1H-tetrazol-5-yl)benzene-1,2-disulfonamide] | 8.00 | 1.75 | 25 | 6.25 | 25 | 0.81 | 0.938 | 3.125 | 25 | –
8 | Nc1nc2c(-c3ccc(S(=O)(=O)N4CC(F)(F)C4)c(S(N)(=O)=O)c3-c3nnn[nH]3)cccc2s1 [Example 42, 3-(2-amino-1,3-benzothiazol-4-yl)-6-[(3,3-difluoroazetidin-1-yl)sulfonyl]-2-(1H-tetrazol-5-yl)benzenesulfonamide] | 15.99 | – | 12.5 | 3.125 | 12.5 | 0.7 | 0.697 | 1.563 | 25 | 0.669
9 | Nc1nc2c(-c3ccc(S(=O)(=O)N4CCC(F)(F)C4)c(S(N)(=O)=O)c3-c3nnn[nH]3)cccc2s1 [Example 43, 3-(2-amino-1,3-benzothiazol-4-yl)-6-[(3,3-difluoropyrrolidin-1-yl)sulfonyl]-2-(1H-tetrazol-5-yl)benzenesulfonamide] | 63.98 | 1.86 | 100 | 6.25 | 25 | 1.23 | 2.07 | 1.563 | 100 | –
10 | Nc1nc2c(-c3ccc(S(=O)(=O)N4CC[S+]([O-])CC4)c(S(N)(=O)=O)c3-c3nnn[nH]3)cccc2s1 [Example 44, 3-(2-amino-1,3-benzothiazol-4-yl)-6-[(1-oxidothiomorpholin-4-yl)sulfonyl]-2-(1H-tetrazol-5-yl)benzenesulfonamide] | 2.00 | 2.06 | 25 | 6.25 | 25 | 2.22 | 0.872 | 6.25 | 12.5 | –
11 | Nc1nc2c(-c3ccc(S(=O)(=O)NCC4(F)CNC4)c(S(N)(=O)=O)c3-c3nnn[nH]3)cccc2s1 [Example 46, 4-(2-amino-1,3-benzothiazol-4-yl)-N^1-[(3-fluoroazetidin-3-yl)methyl]-3-(1H-tetrazol-5-yl)benzene-1,2-disulfonamide] | 0.50 | 0.321 | 3.125 | 1.563 | 6.25 | 0.289 | 0.0572 | 1.563 | 0.7813 | –
12 | NCC(F)(F)CNS(=O)(=O)c1ccc(-c2cccc3sc(N)nc23)c(-c2nnn[nH]2)c1S(N)(=O)=O [Example 47, 4-(2-amino-1,3-benzothiazol-4-yl)-N1-(3-amino-2,2-difluoropropyl)-3-(1H-tetrazol-5-yl)benzene-1,2-disulfonamide] | 1.00 | 0.304 | 12.5 | 3.125 | 6.25 | 0.484 | 0.0658 | 3.125 | 3.125 | –
